Experimental data reported in US10059733B2 (NUCORION PHARMACEUTICALS, INC., priority 2014, dated 2018).

How the values were obtained:
genotype 1b HCV = assay: Oral administration to HCV-infected chimpanzee, viral load (genotype 1b); format: in vivo; settings: Chimpanzee I
Method: (§1) Via oral gavage, two HCV-infected chimpanzees I (male, 56.49 kg and 11 years old; genotype 1b HCV) and II (male, 61.91 kg and 34 years old; genotype 1a HCV) each received a single dosage of 200 mg of Compound 1 in Formulation I while the HCV-infected chimpanzee III (male, 56.19 kg and 18 years old; genotype 1a HCV) was administered a single dosage of 260 mg of the non-phosphorylated analog of Compound 1 (Table 1) in Formulation I. After 12 hours, the HCV viral titer decreased from 24,100 to 10,200 IU/ml (or 58% drop) in Chimpanzee I, from 38,500 to 27,000 IU/ml (or 30% drop) in Chimpanzee II, and from 154,000 to 142,000 IU/ml (or 8% drop) in Chimpanzee III. […] All animals were fasted overnight prior to dosing and a minimum of 2 hours prior to scheduled blood sample collections. Viral load determinations were performed on plasma samples using the HCV TaqMan assay (COBAS® AmpliPrep/COBAS® TaqMan® HCV Test, Version 2, Test Code 1220) for quantitative analysis. […] There were no adverse effects, illness, nor distress seen with the three chimpanzees during the study requiring veterinarian intervention.

MCF-7 = assay: TC50 assay with human cancer cell lines, 96 h: MCF-7; format: cell-based; settings: MCF7, 96 h, read-out: TC50 MCF-7 (μM)
Method: (§3) Huh7 cells were maintained at 37° C. in a humidified atmosphere at 5% CO2 in DMEM containing 10% FBS. […] The cells were then treated with each compound at concentrations ranging from 500 μM to 0 μM in triplicate in DMEM media containing 2% FBS and 0.5% DMSO and without phenol red. After 48 h of treatment at 37° C., the relative number of living cells in each well was determined by using the CellTiter 96 system (Promega) according to the manufacturer's instructions. The 3-(4,5-dimethylthiazol-2-yl)-5-(3-carboxymethoxyphenyl)-2-(4-sulfophenyl)-2H-tetrazolium (MTS) and phenazine methosulfate (PMS) reagents were added to each well of the 96-well plate and the plate was incubated at 37° C. for approximately 2 h. The absorbance at 490 nm and 650 nm in each well was then determined by using a Flexstation 3 microplate reader (Molecular Dynamics). The absorbance determined at 650 nm was then subtracted from the absorbance determined at 490 nm to correct for light scattering. The corrected absorbance values representing the relative number of live cells in each condition were then plotted as a function of compound concentration, and the data were then fit to the following sigmoidal Emax equation by using Kaleidagraph: y=(Emax*x^Slope)/(TC50^Slope+x^Slope) where y is the relative corrected absorbance value, Emax is the maximum relative inhibition, x is the compound concentration, TC50 is the concentration of the compound at which the total cell population is reduced by 50%, and Slope is the slope of the curve.
(§4) Huh7, HEPG2, HEK293, MCF-7 and BxPC3 cell lines were maintained at 37° C. in a humidified atmosphere at 5% CO2 in DMEM containing 10% FBS. […] The cells were then treated with each compound at concentrations ranging from 500 μM to 0 μM in triplicate in DMEM media containing 2% FBS and 0.5% DMSO and without phenol red.

BxPC3 = assay: TC50 assay with human cancer cell lines, 96 h: BxPC3; format: cell-based; settings: BXPC-3, 96 h, read-out: TC50 BxPC3 (μM)
Method: as §3, §4

PK9 cells [1] = assay: Cell transport: cytotoxicity in PK9 cells with or without ENT1 inhibitor NBTI; settings: Homo sapiens, PK9, 48 h
Method: (§2) Huh7 cells were maintained at 37° C. in a humidified atmosphere at 5% CO2 in DMEM containing 10% FBS. […] The cells were then treated with each compound at concentrations ranging from 500 μM to 0 μM in triplicate in DMEM media containing 2% FBS and 0.5% DMSO and without phenol red. After 48 h of treatment at 37° C., the relative number of living cells in each well was determined by using the CellTiter 96 system (Promega) according to the manufacturer's instructions. The 3-(4,5-dimethylthiazol-2-yl)-5-(3-carboxymethoxyphenyl)-2-(4-sulfophenyl)-2H-tetrazolium (MTS) and phenazine methosulfate (PMS) reagents were added to each well of the 96-well plate and the plate was incubated at 37° C. for approximately 2 h. The absorbance at 490 nm and 650 nm in each well was then determined by using a Flexstation 3 microplate reader ([…]). The absorbance determined at 650 nm was then subtracted from the absorbance determined at 490 nm to correct for light scattering. The corrected absorbance values representing the relative number of live cells in each condition were then plotted as a function of compound concentration, and the data were then fit to the following sigmoidal Emax equation by using Kaleidagraph: y=(Emax*x^Slope)/(TC50^Slope+x^Slope) where y is the relative corrected absorbance value, Emax is the maximum relative inhibition, x is the compound concentration, TC50 is the concentration of the compound at which the total cell population is reduced by 50%, and Slope is the slope of the curve.
To this end, Huh7 cells or PK9 cells were seeded in 96-well plates at a density of 5,000 cells/well or 2,500 cells/well, respectively, and the plates were incubated at 37° C. for 24 h to allow for cell attachment. The media was then removed from the plates and replaced with media containing 2% FBS, 0.5% DMSO and 10 μM NBTI. […] Subsequently, the cells were treated with each compound at final concentrations ranging from 500 μM to 0 μM in triplicate in media containing 2% FBS, 0.5% DMSO and 10 μM NBTI. […] The TC50 values of each compound in the presence or absence of the ENT1 inhibitor were then compared.

HCV luciferase replicon = assay: Isobologram analysis of synergism with antiviral compound in HCV luciferase replicon; format: cell-based
Method: Isobologram analysis was conducted to assess the potential synergistic interaction of representative disclosed compounds with representative antiviral compounds. The isobolgram analysis was conducted as previously described by Chou and Talalay (see Chou T. C. and Talalay P. “Analysis of combined drug effects: a new look at a very old problem.” Trends Pharmacol Sci 1983; 4:450-4; and Chou T. C. and Talalay P. “Quantitative analysis of dose-effect relationships: the combined effects of multiple drugs or enzyme inhibitors.” Adv Enzyme Regul 1984; 22:27-55; both of which are incorporated herein by reference in their entirety). The definitions of synergism are those described by Chou (see Chou, T. C. (2006) Theoretical basis, experimental design, and computerized simulation of synergism and antagonism in drug combination studies. Pharmacol Rev. 58(3):621-81, which is incorporated herein by reference in its entirety).
In the synergism studies described herein, the antiviral compound shown in Table 6 was assessed in combination with a representative disclosed compound, Compound 1.

PK9 cells [2] = assay: TC50 assay in PK9 cells, 48 h; settings: Homo sapiens, PK9, 48 h, read-out: TC50 (μM) in PK9 cells at 48 hr
Method: as §2
PK9 and RPK9 cells were maintained at 37° C. in a humidified atmosphere at 5% CO2 in Roswell Park Memorial Institute (RPMI) media containing 10% FBS. […] The cells were then treated with each compound at concentrations ranging from […] to 0 μM in triplicate in RPMI media containing 2% FBS and 0.5% DMSO and without phenol red. […] The RPK9 cells were derived from the parental PK9 cell line, and are deficient for dCK activity due to the partial deletion of the dCK gene.

HEK293 = assay: TC50 assay with human cancer cell lines, 96 h: HEK293; format: cell-based; settings: HEK293, 96 h, read-out: TC50 HEK293 (μM)
Method: as §3, §4

[3] = Tolerability of single oral dosage in HCV-infected chimpanzees; format: in vivo, chimpanzee; settings: single oral dosage 200 mg
Method: as §1

[4] = TC50 assay in Huh7 cells, 48 h (CellTiter 96); settings: human
Method: as §2
The data in Table 1 were determined for cells exposed to drug for 48 h. The IC50 is the concentration of each compound necessary to inhibit the replication of the HCV luciferase replicon to 50%. “TC50,” refers to toxic concentration necessary to reduce the cell population by 50%. All compounds were purified by HPLC.

[5] = Compound 1 0.2 nM + BMS-790052 0.010 nM
[6] = Compound 1 0.4 nM + BMS-790052 0.008 nM
[7] = Compound 1 7.1 nM + BMS-790052 0.006 nM
[8] = Compound 1 14.2 nM + BMS-790052 0.004 nM

In the case of CCCC(CCC)C(=O)Nc1ccn([C@@H]2O[C@H](CO[P@@](=O)(N[C@@H](C)C(=O)OC(C)C)Oc3ccccc3)[C@@H](O)C2(F)F)c(=O)n1 [Compound 1, (S)-isopropyl 2-(((S)-(((2R,3R,5R)-4,4-difluoro-3-hydroxy-5-(2-oxo-4-(2-propylpentanamido)pyrimidin-1(2H)-yl)tetrahydrofuran-2-yl)methoxy)(phenoxy)phosphoryl)amino)propanoate], the “drop of HCV viral titer after 12 hours” value (genotype 1b HCV; single oral dosage 200 mg) is reported as 58%, the “HCV viral titer after 12 hours” value (genotype 1b HCV; single oral dosage 200 mg in Formulation I, titer before 24,100 IU/ml) is reported as 10,200 IU/ml and the CC50 (MCF-7) is reported as 1.76 ± 0.67 µM. For the same compound, the CC50 (BxPC3) was 7.01 ± 0.97 µM, the CC50 (PK9 cells [1]; read-out: TC50 (μM) in PK9 cells at 48 h With NBTI) was 16.9 µM and the CC50 (PK9 cells [1]; read-out: TC50 (μM) in PK9 cells at 48 h Without NBTI) was 25.2 µM. The “Combination Index” value (HCV luciferase replicon; [5]) was 0.505, the level of synergism (HCV luciferase replicon; [5]) was “synergism” and the “Combination Index” value (HCV luciferase replicon; [6]) was 0.410. For the same compound, the level of synergism (HCV luciferase replicon; [6]) was “synergisn”, the “Combination Index” value (HCV luciferase replicon; [7]) was 0.468 and the level of synergism (HCV luciferase replicon; [7]) was “synergism”. The “Combination Index” value (HCV luciferase replicon; [8]) was 0.535, the level of synergism (HCV luciferase replicon; [8]) was “synergism” and the “Combination Index” value (HCV luciferase replicon; Compound 1 42.3 nM, BMS-790052 0 nM) was 1.000. The “interaction of Compound 1 with BMS-790052 in the inhibition of the HCV luciferase replicon” value (HCV luciferase replicon; co-treatment with NS5A inhibitor BMS-790052) was “synergism”, the “concentration of the single agent on the IC50 isobologram (Combination Index 1.000)” value (HCV luciferase replicon; compound alone, other compound 0 nM) was 42.3 nM and the CC50 (PK9 cells [2]) was 25.2 ± 13.6 µM. The CC50 (HEK293) was 4.1 ± 0.5 µM, the tolerability [3] was “well tolerated” and the CC50 at 48 h [4] was 17.4 ± 3.4 µM.
